In brackets after ≈: the same amount, converted by molar mass. Like-named read-outs stand apart in the source and are kept apart here.
Columns and labels:
Mexican Bean Beetle = assay: Biological Method D: Foliar Insecticidal Activity Test, Mexican Bean Beetle test; format: in vivo, Epilachna varivestis; set-up: key to LC50 BB 96 hrs / LC50 BB 48 hrs.: I = inactive at concentration listed; settings: Mexican Bean Beetle; for LC50: Epilachna varivestis
Protocol: (§1) Biological Method D: Foliar Insecticidal Activity Test
(§2) In evaluating the foliar insecticidal activity of the compounds of this invention against insects and mites, the following test procedures were employed.
(§3) Not all compounds were tested at each of the several concentrations stated above. Test concentrations of a compound were selected as those most likely to differentiate dose response of a particular compound toward a particular test insect.
(§4) Initial evaluations were made on one or more of the following pests:
(§5) For the Mexican Bean Beetle and Southern armyworm tests, individual lima bean (Phaseolus limeniss var. Woods' Prolific) leaves were placed on moistened pieces of filter paper in Petri dishes. The leaves were then sprayed with the test solution using a rotating turntable and allowed to dry. The dishes were then infested with 10 third instar larvae of either the Mexican Been Beetle or the Southern Armyworm. The dishes were then covered. Percent mortality was determined for each species and spray concentration at 48 and 96 hours after treatment.
(§6) The mortalities obtained in this manner were plotted on logarithmic probability paper.
(§7) The rotating turntable consists of a fixed, continuously operating spray nozzle under which targets are rotated at a fixed speed and distance. If the target is a Petri dish (such as for the bean beetle, armyworm, mite, or aphid tests), the distance from the nozzle is 38.1 cm (15 inches). If the target is a Mason jar (such as for the boll weevil test), the distance from the nozzle is 17.8 cm (7 inches). The nozzle is located 8 inches from the rotating shaft. The targets on individual platforms revolve around the shaft at 1 revolution per 20 seconds but only a brief portion of this time occurs in the spray path. Targets pass only once under the nozzle and then are removed to drying hoods.
(§8) The nozzle used is a 1/4 JCO Spraying Systems (Wheaton, Illinois) air atomizing nozzle equipped with a No. 2850 fluid cap and a No. 70 air cap. At the 68.95 x 10³ Pa gauge (10 psig) air pressure used and with liquid siphon feed, 1.89 ℓ/hr [0.5 GPH (gallons per hour)] are delivered in a round spray pattern with a 21 degree spray angle. Targets are misted with spray droplets to the point that the droplets coalesce to form a uniform thin film insufficient to drown test organisms.

Southern Armyworm = assay: Biological Method D: Foliar Insecticidal Activity Test, Southern Armyworm test; format: in vivo, Spodoptera eridania; set-up: key: I = inactive at concentration listed
Protocol: as §1, §2, §3, §4, §5, §6, §7, §8

Two-Spotted Spider Mite = assay: Biological Method D: Foliar Insecticidal Activity Test, mite test; format: in vivo, Tetranychus urticae; set-up: key to LC50 TSM: I = inactive at concentration listed; settings: Method D foliar test, Two-Spotted Spider Mite; for LC50: Tetranychus urticae, read-out: LC50 TSM
Protocol: as §1, §2, §3, §4
For the mite test, infested bean (Phaseolus limensis var. Woods Prolific) leaf discs [3.18 cm (1.25") in diameter] containing about 50 mites were placed in a Petri dish lid on a moistened piece of cotton. The leaves were then sprayed to thorough wetness with the test solution using a rotating turntable, held for twenty-four hours and then the percentage killed was determined.
as §6, §7, §8

[1] = tested on: southern corn rootworm, Diabrotica undecimpunctata howardi; assay: Biological Method A: Corn Rootworm Screening Test (treated non-aggressive soil); settings: soil concentration giving 90% mortality, 10 days at 27°C
Green Peach Aphid = assay: Biological Method D: Foliar Insecticidal Activity Test, aphid test; format: in vivo, Myzus persicae; set-up: key: I = inactive at concentration listed
Protocol: as §1, §2, §3, §4
For the aphid test, infested broccoli (Brassica oleracea italica var. DiCicco) leaves containing about 50 aphids were placed in a Petri dish lid on a moistened piece of cotton. The leaves were then sprayed to thorough wetness with the test solution using a rotating turntable, held for twenty-four hours and then the percentage killed was determined.
as §6, §7, §8

Boll Weevil [2] = assay: Biological Method D: Foliar Insecticidal Activity Test, boll weevil test; format: in vivo, Anthonomous grandis; settings: Method D foliar test, Boll Weevil
Protocol: as §1, §2, §3, §4
(§9) For the boll weevil test, 10 adult weevils were placed in a 0.24 ℓ (0.5 pint) glass Mason jar containing a small cube of apple. The weevils were confined to the jar by fiberglass screen mesh secured by a screw-type rim cap. The jars were then sprayed with the test solution using a rotating turntable; directing the spray through the mesh into the jar. The percentage killed was determined after forty-eight and ninety six hours.
as §6, §7, §8

Boll Weevil [3] = assay: as above; format: in vivo, Anthonomous grandis; set-up: key: I = inactive at concentration listed
Protocol: as §1, §2, §3, §4, §9, §6, §7, §8

[4] = tested on: southern corn rootworm, Diabrotica undecimpunctata howardi; settings: at-planting soil application
[5] = Method D foliar test, 96 hrs, read-out: LC50 BB 96 hrs
[6] = Method D foliar test, 48 hrs, read-out: LC50 BB 48 hrs.

| SMILES | LC50 (Mexican Bean Beetle; [5]) [µg/mL] | LC50 BB 48 hrs. (Mexican Bean Beetle; Method D foliar test, 48 hrs) | LC50 AW 48 hrs (Southern Armyworm) | LC50 AW 96 hrs (Southern Armyworm) | LC50 TSM (Two-Spotted Spider Mite) | primary nonagressive Method A crw LC90 [1] | LC50 GPA (Green Peach Aphid) | LC50 BW 48 hrs (Boll Weevil [2]) [ppm] | LC50 BW 96 hrs (Boll Weevil [2]) [ppm] | LC50 BW 48 hrs (Boll Weevil [3]) | LC50 BW 96 hrs (Boll Weevil [3]) | LC50 BB 96 hrs (Mexican Bean Beetle; Method D foliar test, 96 hrs) | LC50 (Mexican Bean Beetle; [6]) [µg/mL] | secondary aggressive Method C crw LC50 ([4]; rated 17 days post-infestation) [kg/ha] | secondary aggressive Method C crw LC50 ([4]; value in brackets) [lb/acre] | LC50 (Two-Spotted Spider Mite) [µg/mL] | LC50 (Mexican Bean Beetle; foliar, 48 hrs, compounds a-r, read-out: LC 50 BB 48 hrs.) [µg/mL] | LC50 (Mexican Bean Beetle; foliar, 96 hrs, compounds a-r, read-out: LC 50 BB 96 hrs.) [µg/mL] |
| --- | --- | --- | --- | --- | --- | --- | --- | --- | --- | --- | --- | --- | --- | --- | --- | --- | --- | --- |
| CCOP(=O)(NNP(=S)(OCC)OC(C)C)SC(C)CC (stereo not shown) [Compound 55] | 17 (≈ 44.9 µM) | I | I | I | I | 1.1 ppm | I | 740 | 70 | – | – | – | – | – | – | – | – | – |
| CCOP(=S)(NNP(=S)(OCC)N1CCCCC1)OCC (stereo not shown) [Compound 62] | – | I | I | I | I | 1.1 ppm | I | – | – | I | I | I | – | – | – | – | – | – |
| CCOP(=S)(NNP1(=S)N(C)CCN1C)OCC [Compound 3] | – | – | I | I | I | 4.5 ppm | I | – | – | I | I | – | – | – | – | – | – | – |
| CCCOP(=S)(NNP(=S)(OCCC)OCCC)OCC (stereo not shown) [Compound 28] | 50 (≈ 132 µM) | – | I | I | I | 1.1 ppm | I | – | – | I | I | – | 62 (≈ 164 µM) | 1.06 | 0.95 | – | – | – |
| CCOP(=O)(NNP(=S)(OCC)OCC)SC(C)CC (stereo not shown) [Compound 53] | – | I | I | I | I | 1.6 ppm | I | 740 | 740 | – | – | I | – | – | – | – | – | – |
| CCOP(=S)(NNP(=S)(OC)OC)OCC [Compound 36, reference compound] | 600 (≈ 1950 µM) | I | I | I | – | 0.90 ppm | I | – | – | I | I | – | – | – | – | 79 (≈ 256 µM) | – | – |
| CCCOP(=S)(NNP(=O)(OCC)SCC)OCCC (stereo not shown) [Compound 22] | 115 (≈ 316 µM) | – | I | I | I | I | I | – | – | I | I | – | 150 (≈ 412 µM) | – | – | – | – | – |
| CCOP(=S)(NNP(=S)(OCC)OC(C)CC)OCC(C)(C)C (stereo not shown) [Compound 47, N-(O-ethyl O-secbutylthiophosphoryl) N′-(O-ethyl O-neopentylthiophosphoryl) hydrazine] | 45 (≈ 111 µM) | I | I | I | I | 0.09 ppm | I | – | – | I | I | – | – | 0.38 | 0.34 | – | – | – |
| CCOP(=O)(NNP(=S)(OCC)OCC)SCC (stereo not shown) [Compound 21] | – | – | I | I | I | 4.7 ppm | I | – | – | I | I | – | – | – | – | – | – | – |
| CCOP(=S)(NN(C)P(=S)(OCC)OCC)OC(C)C (stereo not shown) [p] | – | – | – | – | – | – | – | – | – | – | – | – | – | – | – | – | 270 (≈ 741 µM) | 78 (≈ 214 µM) |
| CCOP(=S)(NNP(=S)(OCC)SCC)OCC (stereo not shown) [Compound 26] | 150 (≈ 426 µM) | – | I | I | – | 1.1 ppm | I | – | – | I | I | – | 150 (≈ 426 µM) | – | – | 640 (≈ 1820 µM) | – | – |
| CCOP(=S)(NNP1(=S)OCC(C)(C)CO1)OCC [Compound 61] | – | I | I | – | I | 1.1 ppm | I | 740 | 740 | – | – | I | – | – | – | – | – | – |
| CCCNP(=S)(NNP(=S)(OCCC)OCCC)OCC (stereo not shown) [Compound 25] | 13 (≈ 34.4 µM) | – | I | I | I | 2.5 ppm | I | – | – | I | I | – | 38 (≈ 101 µM) | – | – | – | – | – |
| CCOP(=S)(NNP(=S)(OCC)N1CCCC1)OCC (stereo not shown) [Compound 60] | – | I | I | I | I | 1.1 ppm | I | – | – | I | I | I | – | – | – | – | – | – |
| CCCOP(=S)(NNP(=S)(OCC)SCC)OCCC (stereo not shown) [Compound 27] | 150 (≈ 394 µM) | – | I | I | I | 5.8 ppm | I | – | 740 | I | – | – | 150 (≈ 394 µM) | – | – | – | – | – |
| CCCOP(=S)(NNP(=S)(OC)OC)OCCC [Compound 37, reference compound] | 62 (≈ 184 µM) | – | I | I | – | 1.7 ppm | I | – | – | I | I | – | 150 (≈ 446 µM) | – | – | 450 (≈ 1340 µM) | – | – |
| CCOP(=S)(NNP(=S)(OCC)OC(C)(C)C(F)(F)F)OCC (stereo not shown) [Compound 40] | 45 (≈ 108 µM) | – | I | I | – | 1.0 ppm | I | – | – | I | I | – | 38 (≈ 90.8 µM) | – | – | 150 (≈ 359 µM) | – | – |
| CCOP(=O)(NNP(=S)(OCC)OC(C)CC)SC(C)CC (stereo not shown) [Compound 56] | 31 (≈ 79 µM) | – | I | I | I | 1.1 ppm | I | – | – | I | I | – | 380 (≈ 968 µM) | – | – | – | – | – |
| COP(=S)(NNP(=S)(OC)OC)OC [Compound 42, reference compound] | – | – | I | I | – | I | I | – | – | I | I | I | 600 (≈ 2140 µM) | – | – | 150 (≈ 535 µM) | – | – |
| CCOP(=S)(NNP(=S)(OCC(C)(C)C)OCC(C)(C)C)OCC [Compound 59, reference compound] | – | I | I | I | I | I | I | 740 | 740 | – | – | I | – | – | – | – | – | – |

Reference: EP0437336B1, “Biophosphoryl hydrazines and their use as pesticides” (priority 1990, dated 1991)
